Measurements from US20120328602A1, “COMPOSITIONS AND METHODS FOR TREATING CONDITIONS ASSOCIATED WITH CERAMIDE BIOSYNTHESIS” (priority 2007, published 2012).
“Also recorded” adds a separate entry of the source. Read-outs that look alike come from different tables or passages of the source.

Assays:
mice [1] = format: in vivo, male CD-1 mice
mice [2] = assay: hot plate, morphine-induced antinociceptive tolerance (Examples 3-5); format: in vivo, Male CD-1 mice; conditions: for % MPE: n=6
Procedure: Nociceptive thresholds were determined by measuring latencies (in seconds) of mice placed in a transparent glass cylinder on a hot plate (Ugo Basile, Italy) maintained at 52° C. Determination of antinociception was assessed between 7 and 10:00 A.M. All injections were given intra-peritoneally (i.p.) or subcutaneously (s.c.) in a volume of 0.1 and 0.3 ml, respectively, at approximately 7 A.M. and 4 P.M. Responses indicative of nociception included intermittent lifting and/or licking of the hindpaws or escape behavior. […] Results were expressed as percentage of maximum possible antinociceptive effect, which was calculated as follows: (response latency−baseline latency)/(cut-off latency−baseline latency)×100. A cut-off latency of twenty seconds was employed to prevent tissue damage. Ten mice per group were used and all experiments were conducted with the experimentors blinded to treatment conditions. […] The following experimental groups were used: […]
Vehicle (V) Group: In this group, mice were injected twice per day for four days with an i.p, injection of saline and a s.c. injection of saline.

ceramide [3] = assay: immunohistochemistry for ceramide in spinal cord (Example 3)
Iba1 = assay: spinal expression of Iba1 (microglia activation); format: in vivo, mice; conditions: for Iba1 immunoreactivity in superficial layers of the dorsal horn: micrographs
GFAP = assay: spinal expression of GFAP (astrocyte activation); format: in vivo, mice; conditions: for GFAP immunoreactivity in superficial layers of the dorsal horn: micrographs
Procedure: Animals were rapidly sacrificed (<1 min) in a CO2 chamber and the dorsal portion of the spinal cord lumbar region enlargement removed and stored at −80° C. until used. Cytosolic and nuclear extracts were prepared as previously described (Bethea et al., 1998), with minor modifications. Tissues from each mouse were suspended in extraction Buffer A (0.2 mM PMSF, […], 20 μM leupeptin, 1 mM sodium orthovanadate), homogenized for two minutes, and centrifuged at 1,000×g for ten minutes at 4° C. Supernatants were collected as the cytosolic fraction. The pellets containing nuclei were re-suspended in Buffer B (1% Triton X-100, 150 mM NaCl, 10 mM TRIS-HCl pH 7.4, 1 mM EGTA, 1 mM EDTA, 0.2 mM PMSF, 20 μm leupeptin, 0.2 mM sodium orthovanadate). After centrifugation for thirty minutes at 15,000×g at 4° C., the supernatants were collected as nuclear extracts and then stored at […] for further analysis. The levels of IκB-α, phospho-NF-κB p65 (serine 536), were quantified in cytosolic fraction from spinal cord tissue, while NF-κB p65 levels were quantified in nuclear fraction.

peroxynitrite = assay: 3-nitrotyrosine (NT) staining in dorsal horn as marker of peroxynitrite; format: in vivo, mice
Text: . Detection of NT in this setting can therefore be reliably used as marker of peroxynitrite. […]; FIG. 8c), evidence of the contribution of ceramide in the production of spinal peroxynitrite.

mice [4] = format: in vivo; conditions: for % MPE for acute morphine: acute morphine 3 mg/kg s.c. on day five
[5] = system: manganese superoxide dismutase (MnSOD); assay: MnSOD nitration by immunoprecipitation and western blot; format: in vivo, mice
Procedure: Animals were rapidly sacrificed (<1 min) in a CO2 chamber and the dorsal portion of the spinal cord lumbar region enlargement removed and stored at −80° C. until used. Cytosolic and nuclear extracts were prepared as previously described (Bethea et al., 1998), with minor modifications. Tissues from each mouse were suspended in extraction Buffer A (0.2 mM PMSF, […], 20 μM leupeptin, 1 mM sodium orthovanadate), homogenized for two minutes, and centrifuged at 1,000×g for ten minutes at 4° C. Supernatants were collected as the cytosolic fraction. […] The levels of IκB-α, phospho-NF-κB p65 (serine 536), were quantified in cytosolic fraction from spinal cord tissue, while NF-κB p65 levels were quantified in nuclear fraction. […] Manganese superoxide dismutase (MnSOD) nitration was determined with western blot analysis of immunoprecipitated protein complex in total lysates using antibodies specific to these proteins. […] The relative expression of the protein levels as the band density for IκB-α (˜37 kDa), phospho NF-κB (65 kDa), NF-κB p65 (75 kDa), MnSOD (˜29 kDa), GFAP (˜50 kDa), and Iba1(˜17 kDa) was quantified by scanning of the X-ray films with GS-700 Imaging Densitometer (BIO-RAD U.S.A.) and a computer program (Molecular Analyst, IBM).

ceramide [6] = assay: ceramide in spinal cord dorsal horn by immunohistochemistry and ESI-MS/MS (Example 1); format: in vivo, mice
[7] = morphine plus FB1 1 mg/kg/d, n=5, ±SEM
[8] = acute morphine in tolerant mice vs vehicle

CCCC[C@@H](C)[C@@H](OC(=O)C[C@@H](CC(=O)O)C(=O)O)[C@H](C[C@@H](C)C[C@H](O)CCCC[C@@H](O)C[C@H](O)[C@H](C)N)OC(=O)C[C@@H](CC(=O)O)C(=O)O [FB1, Fumonisin B1]
% MPE for acute morphine (mice [1]; Mor+FB1 groups, FB1 1 mg/kg/day i.p. for six days with morphine minipump): 87±4 % MPE | % MPE for acute morphine (mice [1]; control+FB1 groups, FB1 1 mg/kg/day i.p., saline minipump): 85±6 % MPE | development of tolerance, dose-dependence (mice [2]; co-administered with morphine, FB1 0.1-1 mg/kg/d, myriocin 0.1-0.4 mg/kg/d, D609 10-40 mg/kg/d, n=10): attenuated in a dose-dependent manner | hot plate latencies following s.c. saline (mice [2]; day five, highest dose of drug, no morphine, n=10): six and seven | difference in responses to acute morphine (0.3-3 mg/kg), drug vs vehicle (mice [2]; highest dose over five days: FB1 1 mg/kg/d, myriocin 0.4 mg/kg/d, D609 40 mg/kg/d, n=10): statistically insignificant | antinociceptive effects when tested alone (mice [2]; highest dose, alone): none of FB1, myriocin, or D609 had antinociceptive effects | % MPE (mice [2]; tolerant mice, single i.p. dose fifteen minutes before acute morphine 3 mg/kg: FB1 1 mg/kg, myriocin 0.4 mg/kg, D609 40 mg/kg): 7±3% | ceramide immunostaining (ceramide [3]; co-administered with morphine, FB1 1 mg/kg/d, myriocin 0.4 mg/kg/d, D609 40 mg/kg/d): attenuated; also recorded: abolished the presence of positive staining for ceramide | Iba1 immunoreactivity in superficial layers of the dorsal horn (Iba1; 1 mg/kg/d of FB1 with morphine): blocked | spinal expression of IBa1 (activation of microglial cell) (Iba1; morphine plus FB1 1 mg/kg/d, n=5): 275.53±0.053 densitometry units | GFAP immunoreactivity in superficial layers of the dorsal horn (GFAP; 1 mg/kg/d of FB1 with morphine): blocked | spinal expression of GFAP (activation of astrocytes) (GFAP; [7]): 4627.38±0.483 densitometry units | appearance of NT staining (peroxynitrite; co-administration of morphine with FB1 1 mg/kg/d): blocked | responses to acute morphine in control groups vs control groups treated with drug (mice [4]; Control+Drug groups, no repeated morphine): similar | development of antinociceptive tolerance (mice [4]; co-administration with morphine, i.p., FB1 1 mg/kg, myriocin 0.2 mg/kg, D609 40 mg/kg): prevented the development of antinociceptive tolerance | antinociceptive effects when tested alone (mice [4]; drug alone (not shown)): no antinociceptive effects | post-translational nitration of MnSOD [5, 7]: 350±45 densitometry units | increase in ceramide by immunohistochemical analysis and ESI-MS/MS (ceramide [6]; co-administration of morphine with FB1 1 mg/kg): prevented

CN1CC[C@]23c4c5ccc(O)c4O[C@H]2[C@@H](O)C=C[C@H]3[C@H]1C5 [morphine]
% MPE for acute morphine (mice [1]; Morphine groups (morphine 50 mg/kg by osmotic minipump), acute morphine 3 mg/kg i.p., tail flick): 15±4 % MPE | % MPE for acute morphine (mice [1]; control groups (saline minipump), acute morphine 3 mg/kg i.p., tail flick, day six): 90±5 % MPE | percent maximal possible antinociceptive effect (mice [2]; acute morphine 3 mg/kg in vehicle group (saline over four days), hot plate): 90-95% | % MPE (mice [2]; morphine group (tolerant), acute morphine 3 mg/kg on day five): 10±2% | development of antinociceptive tolerance (mice [2]; repeated administration of morphine (20 mg/kg/d) over four days): led to the development of antinociceptive tolerance | % MPE (mice [2]; vehicle group (saline four days), acute morphine 3 mg/kg on day five): 96±3% | ceramide staining in dorsal horn, immunohistochemistry (ceramide [3]; repeated morphine, day five): appearance of ceramide in the superficial layers of the dorsal horn; also recorded: marked appearance of positive staining for ceramide | Iba1 immunoreactivity in superficial layers of the dorsal horn (Iba1; [8]): increased | spinal expression of IBa1 (Iba1; morphine group, n=5, ±SEM): 541.29±0.073 densitometry units | GFAP immunoreactivity in superficial layers of the dorsal horn (GFAP; [8]): increased | spinal expression of GFAP (GFAP; morphine group, n=5): 7343.95±0.527 densitometry units | NT staining in dorsal horn (peroxynitrite; morphine tolerant mice): appearance of NT staining in tolerant mice | % MPE for acute morphine (mice [4]; Control group (saline over four days)): 93±8 % MPE | % MPE for acute morphine (mice [4]; Morphine group (morphine 2×10 mg/kg/day over four days)): 20±14 % MPE | antinociceptive effect (mice [4]; acute morphine 3 mg/kg subcutaneously, forty minutes after dose, hot plate 52° C., n=8): 99±2% | post-translational nitration of MnSOD ([5]; mouse, in vivo): 850±70 densitometry units | ceramide in dorsal horn, immunohistochemistry with anti-ceramide antibody (ceramide [6]; repeated administration of morphine over four days): appearance of ceramide in the superficial layers of the dorsal horn | predominant ceramide species increased in dorsal horn tissues, ESI-MS/MS (ceramide [6]; repeated morphine administration, n=3): 18:0, 20:0, and 22:0 ceramide
